According to patent publication US7723329B2, “Substituted-3-sulfonylindazole derivatives as 5-hydroxytryptamine-6 ligands” (Wyeth LLC, priority 2005, dated 2010):

Molecular target: T1, human cloned 5-HT6 receptors (Homo sapiens, UniProt P50406)
T1 construct: expressed in transfected cells; host or cells: HeLa cells
Test: 5-HT6 binding affinity, [3H]-LSD displacement
Conditions: membranes of Hela cells expressing human cloned 5-HT6 receptors; [3H]-LSD 3.0 nM; 120 minutes at room temperature
Protocol: The affinity of test compounds for the serotonin 5-HT6 receptor was evaluated in the following manner. Cultured Hela cells expressing human cloned 5-HT6 receptors were harvested and centrifuged at low speed (1,000×g) for 10.0 minutes to remove the culture media. The harvested cells were suspended in half volume of fresh physiological phosphate buffered saline solution and recentrifuged at the same speed. This operation was repeated. The collected cells were then homogenized in ten volumes of 50 mM Tris.HCl (pH 7.4) and 0.5 mM EDTA. The homogenate was centrifuged at 40,000×g for 30.0 min and the precipitate was collected. The obtained pellet was resuspended in 10 volumes of Tris.HCl buffer and recentrifuged at the same speed. The final pellet was suspended in a small volume of Tris.HCl buffer and the tissue protein content was determined in aliquots of 10-25 μl volumes. […] The volume of the suspended cell membranes was adjusted to give a tissue protein concentration of 1.0 mg/ml of suspension. The prepared membrane suspension (10 times concentrated) was aliquoted in 1.0 ml volumes and stored at −70° C. until used in subsequent binding experiments.
The bound complex caught on the filter disk was allowed to air dry and the radioactivity is measured in a Packard TopCount® equipped with six photomultiplier detectors, after the addition of 40.0 μl Microscint®-20 scintillant to each shallow well. The unifilter plate was heat-sealed and counted in a PackardTopCount® with a tritium efficiency of 31.0%.
Specific binding to the 5-HT6 receptor was defined as the total radioactivity bound less the amount bound in the presence of 10.0 μM unlabeled methiothepin. Binding in the presence of varying concentrations of test compound was expressed as a percentage of specific binding in the absence of test compound. The results were plotted as log % bound versus log concentration of test compound. […] A linear regression line of data points was plotted, from which the IC50 value is determined and the Ki value is determined based upon the following equation: Ki=IC50/(1+L/KD) where L was the concentration of the radioactive ligand used and KD is the dissociation constant of the ligand for the receptor, both expressed in nM.

T1 sequence (P50406 whole entry): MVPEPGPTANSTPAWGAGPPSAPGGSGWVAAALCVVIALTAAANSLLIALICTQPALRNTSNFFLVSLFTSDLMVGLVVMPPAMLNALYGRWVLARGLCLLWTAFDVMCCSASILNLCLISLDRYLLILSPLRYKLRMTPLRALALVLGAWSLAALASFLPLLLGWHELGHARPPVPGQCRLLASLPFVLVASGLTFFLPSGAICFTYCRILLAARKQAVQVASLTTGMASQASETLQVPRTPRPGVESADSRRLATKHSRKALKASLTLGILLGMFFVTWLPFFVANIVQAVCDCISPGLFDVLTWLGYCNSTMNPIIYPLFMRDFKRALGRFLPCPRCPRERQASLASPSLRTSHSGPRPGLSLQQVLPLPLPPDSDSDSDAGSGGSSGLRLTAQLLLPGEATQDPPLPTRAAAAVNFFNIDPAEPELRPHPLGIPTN

| Compound | Ki [nM] |
| --- | --- |
| CN(C)CCOc1ccc2[nH]nc(S(=O)(=O)c3ccccc3)c2c1 [Example 1, [2-(3-Benzenesulfonyl-1H-indazol-5-yloxy)-ethyl]-dimethyl-amine] | 11 to 25 |
| CCN(C)CCOc1ccc2[nH]nc(S(=O)(=O)c3ccccc3)c2c1 [Example 2, [2-(3-Benzenesulfonyl-1H-indazol-5-yloxy)-ethyl]-ethyl-methyl-amine] | > 45 |
| O=S(=O)(c1ccccc1)c1n[nH]c2ccc(OCCN3CCCCC3)cc12 [Example 3, 3-Benzenesulfonyl-5-(2-piperidin-1-yl-ethoxy)-1H-indazole] | 26 to 35 |
| CCNCCOc1ccc2[nH]nc(S(=O)(=O)c3ccccc3)c2c1 [Example 4, [2-(3-Benzenesulfonyl-1H-indazol-5-yloxy)-ethyl]-ethyl-amine] | 0.01 to 10 |
| CCN(CC)CCOc1ccc2[nH]nc(S(=O)(=O)c3ccccc3)c2c1 [Example 5, [2-(3-Benzenesulfonyl-1H-indazol-5-yloxy)-ethyl]-diethyl-amine] | 36 to 45 |
| CC(C)NCCOc1ccc2[nH]nc(S(=O)(=O)c3ccccc3)c2c1 [Example 6, [2-(3-Benzenesulfonyl-1H-indazol-5-yloxy)-ethyl]-isopropyl-amine] | 11 to 25 |
| CCCCNCCOc1ccc2[nH]nc(S(=O)(=O)c3ccccc3)c2c1 [Example 7, [2-(3-Benzenesulfonyl-1H-indazol-5-yloxy)-ethyl]-butyl-amine] | 26 to 35 |
| O=S(=O)(c1ccccc1)c1n[nH]c2ccc(OCCNC3CC3)cc12 [Example 8, [2-(3-Benzenesulfonyl-1H-indazol-5-yloxy)-ethyl]-cyclopropyl-amine] | 26 to 35 |
| O=S(=O)(c1ccccc1)c1n[nH]c2ccc(OCCNC3CCCC3)cc12 [Example 9, 3-Benzenesulfonyl-5-(2-cyclopentyl-1-yl-ethoxy)-1H-indazole] | 11 to 25 |
| O=S(=O)(c1ccccc1)c1n[nH]c2ccc(OCCN3CCOCC3)cc12 [Example 10, 3-Benzenesulfonyl-5-(2-morpholin-4-yl-ethoxy)-1H-indazole] | > 45 |
| O=S(=O)(c1ccccc1)c1n[nH]c2ccc(OCCN3CCCC3)cc12 [Example 11, 3-Benzenesulfonyl-5-(2-pyrrolidin-1-yl-ethoxy)-1H-indazole] | 0.01 to 10 |
| CNCCOc1ccc2[nH]nc(S(=O)(=O)c3ccccc3)c2c1 [Example 12, [2-(3-Benzenesulfonyl-1H-indazol-5-yloxy)-ethyl]-methyl-amine] | 11 to 25 |
| NCCOc1ccc2[nH]nc(S(=O)(=O)c3ccccc3)c2c1 [Example 13, 2-(3-Benzenesulfonyl-1H-indazol-5-yloxy)-ethylamine] | 36 to 45 |
| O=S(=O)(c1cccc2ccccc12)c1n[nH]c2ccc(OCCCNC3CCCC3)cc12 [Example 21, Cyclopentyl-{3-[3-(naphthalene-1-sulfonyl)-1H-indazol-5-yloxy]-propyl}-amine] | 0.01 to 10 |
| O=S(=O)(c1cccc2ccccc12)c1n[nH]c2ccc(OCCCN3CCCC3)cc12 [Example 23, 3-(Naphthalene-1-sulfonyl)-5-(3-pyrrolidin-1-yl-propoxy)-1H-indazole] | 0.01 to 10 |
| O=S(=O)(c1cccc2ccccc12)c1n[nH]c2ccc(OCCCN3CCCCC3)cc12 [Example 24, 3-(Naphthalene-1-sulfonyl)-5-(3-piperidin-1-yl-propoxy)-1H-indazole] | 0.01 to 10 |
| O=S(=O)(c1cccc2ccccc12)c1n[nH]c2ccc(OCCCN3CCOCC3)cc12 [Example 25, 5-(3-Morpholin-4-yl-propoxy)-3-(naphthalene-1-sulfonyl)-1H-indazole] | 0.01 to 10 |
| O=S(=O)(c1cccc2ccccc12)c1n[nH]c2ccc(OCCNC3CCCC3)cc12 [Example 35, Cyclopentyl-{2-[3-(naphthalene-1-sulfonyl)-1H-indazol-5-yloxy]-ethyl}-amine] | 0.01 to 10 |

Further lines, results first:

| Ki [nM] | Compound |
| --- | --- |
| 0.01 to 10 | CNCCCOc1ccc2[nH]nc(S(=O)(=O)c3cccc4ccccc34)c2c1 [Example 15, Methyl-{3-[3-(naphthalene-1-sulfonyl)-1H-indazol-5-yloxy]-propyl}-amine] |
| 0.01 to 10 | CCNCCCOc1ccc2[nH]nc(S(=O)(=O)c3cccc4ccccc34)c2c1 [Example 16, Ethyl-{3-[3-(naphthalene-1-sulfonyl)-1H-indazol-5-yloxy]-propyl}-amine] |
| 0.01 to 10 | CCN(C)CCCOc1ccc2[nH]nc(S(=O)(=O)c3cccc4ccccc34)c2c1 [Example 17, Ethyl-methyl-{3-[3-(naphthalene-1-sulfonyl)-1H-indazol-5-yloxy]-propyl}-amine] |
| 0.01 to 10 | CCN(CC)CCCOc1ccc2[nH]nc(S(=O)(=O)c3cccc4ccccc34)c2c1 [Example 18, Diethyl-{3-[3-(naphthalene-1-sulfonyl)-1H-indazol-5-yloxy]-propyl}-amine] |
| 0.01 to 10 | CCCCNCCCOc1ccc2[nH]nc(S(=O)(=O)c3cccc4ccccc34)c2c1 [Example 19, Butyl-{3-[3-(naphthalene-1-sulfonyl)-1H-indazol-5-yloxy]-propyl}-amine] |
| 0.01 to 10 | O=S(=O)(c1cccc2ccccc12)c1n[nH]c2ccc(OCCCNC3CC3)cc12 [Example 20, Cyclopropyl-{3-[3-(naphthalene-1-sulfonyl)-1H-indazol-5-yloxy]-propyl}-amine] |
| 0.01 to 10 | CC(C)NCCCOc1ccc2[nH]nc(S(=O)(=O)c3cccc4ccccc34)c2c1 [Example 22, Isopropyl-{3-[3-(naphthalene-1-sulfonyl)-1H-indazol-5-yloxy]-propyl}-amine] |
| 0.01 to 10 | NCCCOc1ccc2[nH]nc(S(=O)(=O)c3cccc4ccccc34)c2c1 [Example 26, 3-[3-(Naphthalene-1-sulfonyl)-1H-indazol-5-yloxy]-propylamine] |
| 0.01 to 10 | CN(C)CCOc1ccc2[nH]nc(S(=O)(=O)c3cccc4ccccc34)c2c1 [Example 27, Dimethyl-{2-[3-(naphthalene-1-sulfonyl)-1H-indazol-5-yloxy]-ethyl}-amine] |
| 0.01 to 10 | CC(C)NCCOc1ccc2[nH]nc(S(=O)(=O)c3cccc4ccccc34)c2c1 [Example 28, Isopropyl-{2-[3-(naphthalene-1-sulfonyl)-1H-indazol-5-yloxy]-ethyl}-amine] |
| 0.01 to 10 | CCN(C)CCOc1ccc2[nH]nc(S(=O)(=O)c3cccc4ccccc34)c2c1 [Example 29, Ethyl-methyl-{2-[3-(naphthalene-1-sulfonyl)-1H-indazol-5-yloxy]-ethyl}-amine] |
| 0.01 to 10 | NCCOc1ccc2[nH]nc(S(=O)(=O)c3cccc4ccccc34)c2c1 [Example 30, 2-[3-(Naphthalene-1-sulfonyl)-1H-indazol-5-yloxy]-ethylamine] |
| 0.01 to 10 | CNCCOc1ccc2[nH]nc(S(=O)(=O)c3cccc4ccccc34)c2c1 [Example 31, Methyl-{2-[3-(naphthalene-1-sulfonyl)-1H-indazol-5-yloxy]-ethyl}-amine] |
| 0.01 to 10 | CCNCCOc1ccc2[nH]nc(S(=O)(=O)c3cccc4ccccc34)c2c1 [Example 32, Ethyl-{2-[3-(naphthalene-1-sulfonyl)-1H-indazol-5-yloxy]-ethyl}-amine] |
| 0.01 to 10 | CCN(CC)CCOc1ccc2[nH]nc(S(=O)(=O)c3cccc4ccccc34)c2c1 [Example 33, Diethyl-{2-[3-(naphthalene-1-sulfonyl)-1H-indazol-5-yloxy]-ethyl}-amine] |
| 0.01 to 10 | CCCCNCCOc1ccc2[nH]nc(S(=O)(=O)c3cccc4ccccc34)c2c1 [Example 34, Butyl-{2-[3-(naphthalene-1-sulfonyl)-1H-indazol-5-yloxy]-ethyl}-amine] |
